Activity calls are given as the source filed them. No cut-off for these calls is given here.
Key:
HeLa [1] = test: Cytotoxicity against human HeLa cells assessed as reduction in cell viability at 100 to 400 uM incubated for 4 hrs under dark condition by MTT assay; type: functional, cell-based; conditions: dose 100-400 µM
A-375 [2] = test: Cytotoxicity against human A-375 cells assessed as reduction in cell viability at 100 to 400 uM preincubated for 4 hrs under dark condition followed by irradiation with blue light at 5 J.cm^-2 energy level and measured after 18 hrs by MTT assay; type: functional, cell-based; conditions: dose 100-400 µM, time 22.0 hrs
A-375 [3] = test: Cytotoxicity against human A-375 cells assessed as reduction in cell viability at 100 to 400 uM incubated for 4 hrs under dark condition by MTT assay; type: functional, cell-based; conditions: dose 100-400 µM
MCF7 [4] = test: Cytotoxicity against human MCF7 cells assessed as reduction in cell viability at 100 to 400 uM preincubated for 4 hrs under dark condition followed by irradiation with blue light at 5 J.cm^-2 energy level and measured after 18 hrs by MTT assay; type: functional, cell-based; conditions: dose 100-400 µM, time 22.0 hrs
HeLa [5] = test: Cytotoxicity against human HeLa cells assessed as reduction in cell viability at 100 to 400 uM preincubated for 4 hrs under dark condition followed by irradiation with blue light at 5 J.cm^-2 energy level and measured after 18 hrs by MTT assay; type: functional, cell-based; conditions: dose 100-400 µM, time 22.0 hrs
MCF7 [6] = test: Cytotoxicity against human MCF7 cells assessed as reduction in cell viability at 100 to 400 uM incubated for 4 hrs under dark condition by MTT assay; type: functional, cell-based; conditions: dose 100-400 µM
A-375 [7] = test: Cytotoxicity against human A-375 cells assessed as reduction in cell viability preincubated for 4 hrs under dark condition in presence of deferiprone followed by irradiation with blue light at 2.5 J.cm^-2 energy level for 5 mins and measured after 18 hrs by MTT assay; type: functional, cell-based; conditions: A-375, light or radiation study
A-375 [8] = test: Cytotoxicity against human A-375 cells assessed as reduction in cell viability preincubated for 4 hrs under dark condition followed by irradiation with blue light at 2.5 J.cm^-2 energy level for 5 mins and measured after 18 hrs by MTT assay; type: functional, cell-based; conditions: A-375, light or radiation study
HeLa [9] = test: Cytotoxicity against human HeLa cells assessed as reduction in cell viability preincubated for 4 hrs under dark condition followed by irradiation with blue light at 2.5 J.cm^-2 energy level for 5 mins and measured after 18 hrs by MTT assay; type: functional, cell-based; conditions: light or radiation study
HeLa [10] = test: Cytotoxicity against human HeLa cells assessed as reduction in cell viability preincubated for 4 hrs under dark condition in presence of deferiprone followed by irradiation with blue light at 2.5 J.cm^-2 energy level for 5 mins and measured after 18 hrs by MTT assay; type: functional, cell-based; conditions: light or radiation study
MCF7 [11] = test: Cytotoxicity against human MCF7 cells assessed as reduction in cell viability preincubated for 4 hrs under dark condition followed by irradiation with blue light at 2.5 J.cm^-2 energy level for 5 mins and measured after 18 hrs by MTT assay; type: functional, cell-based; conditions: MCF7, light or radiation study
MCF7 [12] = test: Cytotoxicity against human MCF7 cells assessed as reduction in cell viability preincubated for 4 hrs under dark condition in presence of deferiprone followed by irradiation with blue light at 2.5 J.cm^-2 energy level for 5 mins and measured after 18 hrs by MTT assay; type: functional, cell-based; conditions: MCF7, light or radiation study
[13] = Prodrug release in human MCF7 cells assessed as 3-[(1Z,4Z,9Z,15Z)-7-(2-carboxyethyl)-3,8,12,17-tetramethyl-13,18-divinyl-21,23-dihydroporphyrin-2-yl]propanoic acid release by measuring increase in fluorescence intensity at 20 to 80 uM by microplate reader analysis; type: ADME, cell-based; conditions: mcf7, 80 µM, dose 20-80 µM
[14] = Prodrug release in human Hela cells assessed as 3-[(1Z,4Z,9Z,15Z)-7-(2-carboxyethyl)-3,8,12,17-tetramethyl-13,18-divinyl-21,23-dihydroporphyrin-2-yl]propanoic acid release by measuring increase in fluorescence intensity at 20 to 80 uM by microplate reader analysis; type: ADME, cell-based; conditions: dose 20-80 µM
MCF7 [15] = test: Cytotoxicity against human MCF7 cells assessed as reduction in cell viability at 100 uM incubated for 4 hrs under dark condition by MTT assay; type: functional, cell-based
[16] = Drug metabolism assessed as esterase (unknown origin) mediated hydrolysis by measuring hydroxypyridinone formation; type: ADME; conditions: human
A-375 [17] = test: Cytotoxicity against human A-375 cells assessed as reduction in cell viability at 100 uM incubated for 4 hrs under dark condition by MTT assay; type: functional, cell-based
[18] = Prodrug release in human A-375 cells assessed as 3-[(1Z,4Z,9Z,15Z)-7-(2-carboxyethyl)-3,8,12,17-tetramethyl-13,18-divinyl-21,23-dihydroporphyrin-2-yl]propanoic acid release by measuring increase in fluorescence intensity at 20 to 80 uM by microplate reader analysis; type: ADME, cell-based; conditions: a-375, 80 µM, dose 20-80 µM
[19] = Drug metabolism assessed as esterase (unknown origin) mediated hydrolysis by measuring 5-Aminolevulinic acid formation; type: ADME; conditions: human
HeLa [20] = test: Cytotoxicity against human HeLa cells assessed as reduction in cell viability at 100 uM incubated for 4 hrs under dark condition by MTT assay; type: functional, cell-based
MCF7 [21] = test: Cytotoxicity against human MCF7 cells assessed as reduction in cell viability preincubated for 4 hrs under dark condition in presence of 5-aminolevulinic acid followed by irradiation with blue light at 2.5 J.cm^-2 energy level for 5 mins and measured after 18 hrs by MTT assay; type: functional, cell-based; conditions: MCF7, light or radiation study
A-375 [22] = test: Cytotoxicity against human A-375 cells assessed as reduction in cell viability preincubated for 4 hrs under dark condition in presence of 5-aminolevulinic acid followed by irradiation with blue light at 2.5 J.cm^-2 energy level for 5 mins and measured after 18 hrs by MTT assay; type: functional, cell-based; conditions: A-375, light or radiation study
HeLa [23] = test: Cytotoxicity against human HeLa cells assessed as reduction in cell viability preincubated for 4 hrs under dark condition in presence of 5-aminolevulinic acid followed by irradiation with blue light at 2.5 J.cm^-2 energy level for 5 mins and measured after 18 hrs by MTT assay; type: functional, cell-based; conditions: light or radiation study

| Structure (SMILES) | Activity (HeLa [1]) | Activity (A-375 [2]) | Activity (A-375 [3]) | Activity (MCF7 [4]) | Activity (HeLa [5]) | Activity (MCF7 [6]) | IC50 (A-375 [8]) | IC50 (HeLa [9]) | IC50 (MCF7 [11]) | further results |
| --- | --- | --- | --- | --- | --- | --- | --- | --- | --- | --- |
| COC(=O)CCC(=O)CNC(=O)CCCCCn1cc(O)c(=O)cc1CO | inactive | inactive | inactive | inactive | inactive | inactive |  |  |  |  |
| COC(=O)CCC(=O)CNC(=O)[C@H](Cc1ccccc1)NC(=O)Cn1cc(O)c(=O)cc1C | inactive | inactive | inactive | inactive | inactive | inactive |  |  |  |  |
| COC(=O)CCC(=O)CNC(=O)CCCCn1cc(O)c(=O)cc1C | inactive | inactive | inactive | inactive | inactive | inactive |  |  |  |  |
| COC(=O)CCC(=O)CNC(=O)Cn1cc(O)c(=O)cc1C | inactive | inactive | inactive | inactive | inactive | inactive |  |  |  |  |
| NCC(=O)CCC(=O)O [AMINOLEVULINIC ACID] |  |  |  |  |  |  | > 100 µM | > 100 µM | > 100 µM | IC50 (A-375 [7]): 27.2 µM; IC50 (HeLa [10]): 61.8 µM; IC50 (MCF7 [12]): 65 µM |
| COC(=O)CCC(=O)CNC(=O)[C@H](CC(C)C)NC(=O)Cn1cc(O)c(=O)cc1C | inactive | inactive | inactive | inactive | inactive | inactive |  |  |  |  |
| CCCCCn1c(C)cc(=O)c(O)c1COC(=O)CCC(=O)CN.Cl |  |  |  |  |  |  | 46.4 µM | 47.5 µM | 45.8 µM | Drug metabolism [13]: Metabolite_Detected; Drug metabolism [14]: Metabolite_Detected; Activity (MCF7 [15]): inactive; Drug metabolism [16]: Metabolite_Detected; Activity (A-375 [17]): inactive; Drug metabolism [18]: Metabolite_Detected; Drug metabolism [19]: Metabolite_Detected; Activity (HeLa [20]): inactive |
| COC(=O)CCC(=O)CNC(=O)CCCn1cc(O)c(=O)cc1CO | inactive | inactive | inactive | inactive | inactive | inactive |  |  |  |  |
| COC(=O)CCC(=O)CNC(=O)[C@H](CC(C)C)NC(=O)Cn1ccc(=O)c(O)c1C | inactive | inactive | inactive | inactive | inactive | inactive |  |  |  |  |
| COC(=O)CCC(=O)CNC(=O)CCn1cc(O)c(=O)cc1C | inactive | inactive | inactive | inactive | inactive | inactive |  |  |  |  |
| COC(=O)CCC(=O)CNC(=O)Cn1cc(O)c(=O)cc1CO | inactive | inactive | inactive | inactive | inactive | inactive |  |  |  |  |
| COC(=O)CCC(=O)CNC(=O)CCCn1cc(O)c(=O)cc1C | inactive | inactive | inactive | inactive | inactive | inactive |  |  |  |  |
| COC(=O)CCC(=O)CNC(=O)[C@H](Cc1ccccc1)NC(=O)CCCCCn1cc(O)c(=O)cc1C | inactive | inactive | inactive | inactive | inactive | inactive |  |  |  |  |
| Cc1c(O)c(=O)ccn1C [DEFERIPRONE] |  |  |  |  |  |  |  |  |  | IC50 (MCF7 [21]): 65 µM; IC50 (A-375 [22]): 27.2 µM; IC50 (HeLa [23]): 61.8 µM |
| COC(=O)CCC(=O)CNC(=O)[C@H](Cc1ccccc1)NC(=O)Cn1ccc(=O)c(O)c1C | inactive | inactive | inactive | inactive | inactive | inactive |  |  |  |  |
| Cc1cc(=O)c(O)c(COC(=O)CCC(=O)CN)n1CCc1ccccc1.Cl |  |  |  |  |  |  | 47.3 µM | 30 µM | 67.7 µM | Drug metabolism [13]: Metabolite_Detected; Drug metabolism [14]: Metabolite_Detected; Activity (MCF7 [15]): inactive; Drug metabolism [16]: Metabolite_Detected; Activity (A-375 [17]): inactive; Drug metabolism [18]: Metabolite_Detected; Drug metabolism [19]: Metabolite_Detected; Activity (HeLa [20]): inactive |
| COCCCn1c(C)cc(=O)c(O)c1COC(=O)CCC(=O)CN.Cl |  |  |  |  |  |  | 50.6 µM | 65.7 µM | 57.2 µM | Drug metabolism [13]: Metabolite_Detected; Drug metabolism [14]: Metabolite_Detected; Activity (MCF7 [15]): inactive; Drug metabolism [16]: Metabolite_Detected; Activity (A-375 [17]): inactive; Drug metabolism [18]: Metabolite_Detected; Drug metabolism [19]: Metabolite_Detected; Activity (HeLa [20]): inactive |
| COC(=O)CCC(=O)CNC(=O)CCn1cc(O)c(=O)cc1CO | inactive | inactive | inactive | inactive | inactive | inactive |  |  |  |  |
| CCCCn1c(C)cc(=O)c(O)c1COC(=O)CCC(=O)CN.Cl |  |  |  |  |  |  | 41.7 µM | 68.8 µM | 38 µM | Drug metabolism [13]: Metabolite_Detected; Drug metabolism [14]: Metabolite_Detected; Activity (MCF7 [15]): inactive; Drug metabolism [16]: Metabolite_Detected; Activity (A-375 [17]): inactive; Drug metabolism [18]: Metabolite_Detected; Drug metabolism [19]: Metabolite_Detected; Activity (HeLa [20]): inactive |
| CCCCCCCCn1c(C)cc(=O)c(O)c1COC(=O)CCC(=O)CN.Cl |  |  |  |  |  |  | 38.5 µM | 44.2 µM | 48.9 µM | Drug metabolism [13]: Metabolite_Detected; Drug metabolism [14]: Metabolite_Detected; Drug metabolism [16]: Metabolite_Detected; Drug metabolism [18]: Metabolite_Detected; Drug metabolism [19]: Metabolite_Detected; Activity (HeLa [20]): Active |
| COC(=O)CCC(=O)CNC(=O)CCCCn1cc(O)c(=O)cc1CO | inactive | inactive | inactive | inactive | inactive | inactive |  |  |  |  |
| COC(=O)CCC(=O)CNC(=O)CCCCCn1cc(O)c(=O)cc1C | inactive | inactive | inactive | inactive | inactive | inactive |  |  |  |  |
| CCOCCCn1c(C)cc(=O)c(O)c1COC(=O)CCC(=O)CN.Cl |  |  |  |  |  |  | 52.2 µM | 43.9 µM | 64.7 µM | Drug metabolism [13]: Metabolite_Detected; Drug metabolism [14]: Metabolite_Detected; Activity (MCF7 [15]): inactive; Drug metabolism [16]: Metabolite_Detected; Activity (A-375 [17]): inactive; Drug metabolism [18]: Metabolite_Detected; Drug metabolism [19]: Metabolite_Detected; Activity (HeLa [20]): inactive |

Source: ChEMBL document CHEMBL5550122, “Photodynamic anticancer activity evaluation of novel 5-aminolevulinic acid and 3-hydroxypyridinone conjugates” (Bioorg Med Chem, 2024)
